Data published in patent publication US10160729B2, “Hsp70 modulators and methods for making and using the same” (Memorial Sloan Kettering Cancer Center, priority 2014, dated 2018).

System: MOLM-13 cells
Assay: Caspase cleavage assay (Caspase3, 7 activation)
Format: cell-based
Conditions: Homo sapiens, 16 h treatment, caspase substrate Z-DEVD-R110, read-out: c* Concentration at which 50% of the maximum signal was achieved (caspase activation)
Procedure: Caspase3, 7 Activation. MOLM-13 cells (30,000 cells/well) were plated in black 96-well plates (Corning Cat. #3603) in 40 μL of RPMI media, and left in an incubator (37° C., 5% CO2) for up to 24 h. Cells were treated for 16 h with compounds or DMSO (control) at desired concentrations in 50 μL of media. Drugs were added in triplicate wells. Following exposure of cells to Hsp70 inhibitors, 50 μL of buffer containing 10 mM HEPES (pH 7.5), 2 mM EDTA, 0.1% CHAPS and the caspase substrate Z-DEVD-R110 at 25 μM was added to each well. Plates were incubated until the signal stabilized and then the fluorescence signal of each well was measured in an Analyst GT microplate reader. The percentage increase in apoptotic cells was calculated by comparison of the fluorescence reading obtained from treated versus control cells.

Compared with `NC(=O)c1ccc(Sc2cnc(N3CCN(Cc4ccco4)CC3)nc2OCc2cccc(Cl)c2)cc1C(F)(F)F` [compound 228, 4-((4-((3-Chlorobenzyl)oxy)-2-(4-(furan-2-ylmethyl)piperazin-1-yl)pyrimidin-5-yl)thio)-2-(trifluoromethyl)benzamide], `CCc1cccc(COc2nc(N3CCN(C)CC3)ncc2Sc2ccc(C(N)=O)c(C(F)(F)F)c2)c1` [compound 333, 4-((4-((3-Ethylbenzyl)oxy)-2-(4-methylpiperazin-1-yl)pyrimidin-5-yl)thio)-2-(trifluoromethyl)benzamide] is higher in EC50: less than 200 nM for the first, 1000 to 1200 nM for the second.

`CN1CCN(c2ncc(Sc3ccc(N)nc3)c(OCc3cccc(C#N)c3)n2)CC1` [compound 152, 3-(((5-((6-Aminopyridin-3-yl)thio)-2-(4-methylpiperazin-1-yl)pyrimidin-4-yl)oxy)methyl)benzonitrile] and `COc1ccc(Sc2cnc(N3CCN(C)CC3)nc2OCc2ccccc2)cc1N` [compound 11, 5-((4-(Benzyloxy)-2-(4-methylpiperazin-1-yl)pyrimidin-5-yl)thio)-2-methoxyaniline] fall in the same range of EC50: 200 to 400 nM for the first, 200 to 400 nM for the second.

First: CN1CCN(c2ncc(Sc3ccc(C(=O)NCN4CCCCC4)cc3)c(OCc3ccccc3)n2)CC1 [compound 93, 4-((4-(Benzyloxy)-2-(4-methylpiperazin-1-yl)pyrimidin-5-yl)thio)-N-(piperidin-1-ylmethyl)benzamide]
Second: COC(=O)c1ccc(Sc2cnc(N3CCN(C)CC3)nc2OCc2ccccc2)cc1 [compound 49, Methyl 4-((4-(benzyloxy)-2-(4-methylpiperazin-1-yl)pyrimidin-5-yl)thio)benzoate]
The EC50 of the first is higher: 1000 to 1200 nM for the first, 200 to 400 nM for the second.

Compared with `CN1CCN(c2ncc(Sc3ccc(C(N)=O)cc3)c(OCc3ccco3)n2)CC1` [100i, 4-((4-(Furan-2-ylmethoxy)-2-(4-methylpiperazin-1-yl)pyrimidin-5-yl)thio)benzamide], `CN1CCN(c2ncc(Sc3ccc(C(N)=O)cc3)c(OCc3cccc(N(C)C)c3)n2)CC1` [100a, 4-((4-((3-(Dimethylamino)benzyl)oxy)-2-(4-methylpiperazin-1-yl)pyrimidin-5-yl)thio)benzamide] is lower in EC50: 400 to 1000 nM for the first, less than 200 nM for the second. The second is the more potent here.

`CN1CCN(c2ncc(Sc3ccc(N)cc3)c(OCc3ccccc3)n2)CC1` [compound 10, 4-(4-(Benzyloxy)-2-(4-methylpiperazin-1-yl)pyrimidin-5-ylthio)aniline] and `CN1CCN(c2ncc(Sc3ccc(C(N)=O)c(Cl)c3)c(OCc3ccccc3)n2)CC1` [compound 78, 4-((4-(Benzyloxy)-2-(4-methylpiperazin-1-yl)pyrimidin-5-yl)thio)-2-chlorobenzamide] fall in the same range of EC50: 400 to 1000 nM for the first, 400 to 1000 nM for the second.

First: NC(=O)c1ccc(Sc2cnc(N3CCNCC3)nc2OCc2ccccc2)cc1 [compound 167, 4-((4-(Benzyloxy)-2-(piperazin-1-yl)pyrimidin-5-yl)thio)benzamide]
Second: CC(=O)c1cccc(COc2nc(N3CCN(C)CC3)ncc2Sc2ccc(C(N)=O)cc2)c1 [100q, 4-((4-((3-Acetylbenzyl)oxy)-2-(4-methylpiperazin-1-yl)pyrimidin-5-yl)thio)benzamide]
The EC50 of the first is higher: no less than 1200 nM for the first, 400 to 1000 nM for the second. The second is the more potent here.

First: COc1cccc(COc2nc(N3CCN([C@H](C)C4CC4)CC3)ncc2Sc2ccc(C(N)=O)cc2)c1 [compound 317, (R)-4-((2-(4-(1-Cyclopropylethyl)piperazin-1-yl)-4-((3-methoxybenzyl)oxy)pyrimidin-5-yl)thio)benzamide]
Second: COc1cccc(COc2nc(N3CCN(Cc4ccco4)CC3)ncc2Sc2ccc(C(N)=O)cc2)c1 [190u, 4-((2-(4-(Furan-2-ylmethyl)piperazin-1-yl)-4-((3-methoxybenzyl)oxy)pyrimidin-5-yl)thio)benzamide]
The EC50 of the first is higher: no less than 1200 nM for the first, less than 200 nM for the second.

`CN1CCN(c2ncc(Sc3ccc(C(N)=O)c(Cl)c3)c(OCc3cccc(N(C)C)c3)n2)CC1` [compound 116, 2-Chloro-4-((4-((3-(dimethylamino)benzyl)oxy)-2-(4-methylpiperazin-1-yl)pyrimidin-5-yl)thio)benzamide] was tested, and the EC50 was less than 200 nM.
